According to ChEMBL document CHEMBL1201862, “PubChem BioAssay data set” (2004):
Activity calls are given as the source filed them.

How the values were obtained:
[1] = toxicity toward cultured mammalian cells – cell-based, plate reader, cherry-pick samples, cytotoxicity control, dose response (AID 504397); assay type: functional
[2] = alpha-synuclein stem-loop luciferase translation blockers – H4 neuroglioma cells, luminescence, confirmation (AID 1988); assay type: functional, cell-based
Hexokinase HKDC1 = target: T1, Hexokinase HKDC1 (Homo sapiens, UniProt Q2TB90); assay: inhibition of HKDC1 glucose phosphorylation – biochemical, W721R variant, dose response (AID 504729); assay type: functional
T1 sequence (Q2TB90 whole entry): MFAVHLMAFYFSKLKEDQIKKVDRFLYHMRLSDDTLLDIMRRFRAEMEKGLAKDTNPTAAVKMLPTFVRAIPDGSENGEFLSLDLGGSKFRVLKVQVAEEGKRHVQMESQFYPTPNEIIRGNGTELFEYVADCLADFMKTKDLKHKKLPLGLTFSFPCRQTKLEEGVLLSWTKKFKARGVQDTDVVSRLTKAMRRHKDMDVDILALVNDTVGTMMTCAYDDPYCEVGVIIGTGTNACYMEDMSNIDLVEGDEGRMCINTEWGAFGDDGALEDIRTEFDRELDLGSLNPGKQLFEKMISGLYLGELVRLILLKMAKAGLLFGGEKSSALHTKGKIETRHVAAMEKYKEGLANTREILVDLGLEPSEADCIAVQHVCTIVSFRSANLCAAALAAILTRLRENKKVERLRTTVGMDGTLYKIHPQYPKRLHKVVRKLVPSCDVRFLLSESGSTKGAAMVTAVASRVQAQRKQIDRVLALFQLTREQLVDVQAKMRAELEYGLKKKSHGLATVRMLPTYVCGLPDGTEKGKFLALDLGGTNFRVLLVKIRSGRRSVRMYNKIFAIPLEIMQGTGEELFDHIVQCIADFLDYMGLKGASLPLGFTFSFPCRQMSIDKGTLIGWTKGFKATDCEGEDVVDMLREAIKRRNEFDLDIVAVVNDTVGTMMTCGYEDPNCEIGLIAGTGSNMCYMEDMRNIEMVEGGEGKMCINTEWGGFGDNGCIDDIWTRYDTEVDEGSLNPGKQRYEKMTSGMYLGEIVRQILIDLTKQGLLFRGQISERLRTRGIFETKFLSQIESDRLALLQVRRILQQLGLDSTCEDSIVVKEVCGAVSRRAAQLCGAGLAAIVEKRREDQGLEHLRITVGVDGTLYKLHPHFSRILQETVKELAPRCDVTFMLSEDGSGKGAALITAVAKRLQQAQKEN

[3] = target: T2, RNA-binding protein pos-1 (Caenorhabditis elegans, UniProt G5EF15); assay: disruptors of C. elegans POS-1 RNA interaction – biochemical, fluorescence polarization, dose response (AID 1964);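 further: purified POS-1 fused to maltose binding protein made in E. coli; potency of compounds blocking POS-1 binding to fluorescent RNA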
T2 sequence (G5EF15 whole entry): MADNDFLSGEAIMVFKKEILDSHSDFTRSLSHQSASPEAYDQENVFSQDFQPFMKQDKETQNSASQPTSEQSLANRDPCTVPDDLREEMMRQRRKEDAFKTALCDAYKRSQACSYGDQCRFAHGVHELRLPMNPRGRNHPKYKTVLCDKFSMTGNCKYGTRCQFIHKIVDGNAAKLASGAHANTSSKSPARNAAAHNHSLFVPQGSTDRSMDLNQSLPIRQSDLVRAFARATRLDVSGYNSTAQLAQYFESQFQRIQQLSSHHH

[4] = target: FAD-linked sulfhydryl oxidase ALR (Homo sapiens, UniProt P55789); assay: ALR-catalysed DTT oxidation blockers – biochemical, H2O2 detection, luminescence, cherry-pick, dose response (AID 493248)
Sequence of FAD-linked sulfhydryl oxidase ALR (P55789 whole entry): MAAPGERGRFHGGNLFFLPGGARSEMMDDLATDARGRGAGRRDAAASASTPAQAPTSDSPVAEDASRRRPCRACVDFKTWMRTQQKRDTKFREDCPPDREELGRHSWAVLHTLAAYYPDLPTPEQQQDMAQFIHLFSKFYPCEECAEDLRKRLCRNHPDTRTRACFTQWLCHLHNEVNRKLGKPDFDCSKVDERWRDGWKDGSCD

[5] = Luminescence Cell-Based Dose Response HTS to Identify Inhibitors of 5'UTR Stem-Loop Driven Prion Protein mRNA Translation in H4 Neuroglioblastoma Cells. [Related pubchem assays: 1827 (Project Summary), 1813 (Primary HTS)]; assay type: functional
[6] = luciferase reporter signal suppression in cells – H4 neuroglioma cells, luminescence, dose response (AID 1990); assay type: functional, cell-based
CAAX prenyl protease 2 = target: T3, CAAX prenyl protease 2 (Saccharomyces cerevisiae S288c, UniProt Q03530); assay type: biochemical
T3 sequence (Q03530 whole entry): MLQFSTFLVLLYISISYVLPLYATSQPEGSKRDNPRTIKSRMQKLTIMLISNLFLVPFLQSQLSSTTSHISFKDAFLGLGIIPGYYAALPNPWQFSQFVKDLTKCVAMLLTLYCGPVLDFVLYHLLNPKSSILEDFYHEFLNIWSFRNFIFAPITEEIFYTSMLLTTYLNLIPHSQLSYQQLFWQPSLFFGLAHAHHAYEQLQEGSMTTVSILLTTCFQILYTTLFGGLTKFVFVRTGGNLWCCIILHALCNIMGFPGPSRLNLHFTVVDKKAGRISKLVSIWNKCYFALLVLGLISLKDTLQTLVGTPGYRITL

Protein RecA = target: T4, Protein RecA (Mycobacterium tuberculosis, UniProt P9WHJ3); assay: Fluorescence Cell-Free Homogeneous Dose Retest to Identify Inhibitors of RecA-Intein Splicing Activity. [Related pubchem assays (depositor defined):AID2097, AID2223, AID489010, AID492950]; assay type: functional
T4 sequence (P9WHJ3 whole entry): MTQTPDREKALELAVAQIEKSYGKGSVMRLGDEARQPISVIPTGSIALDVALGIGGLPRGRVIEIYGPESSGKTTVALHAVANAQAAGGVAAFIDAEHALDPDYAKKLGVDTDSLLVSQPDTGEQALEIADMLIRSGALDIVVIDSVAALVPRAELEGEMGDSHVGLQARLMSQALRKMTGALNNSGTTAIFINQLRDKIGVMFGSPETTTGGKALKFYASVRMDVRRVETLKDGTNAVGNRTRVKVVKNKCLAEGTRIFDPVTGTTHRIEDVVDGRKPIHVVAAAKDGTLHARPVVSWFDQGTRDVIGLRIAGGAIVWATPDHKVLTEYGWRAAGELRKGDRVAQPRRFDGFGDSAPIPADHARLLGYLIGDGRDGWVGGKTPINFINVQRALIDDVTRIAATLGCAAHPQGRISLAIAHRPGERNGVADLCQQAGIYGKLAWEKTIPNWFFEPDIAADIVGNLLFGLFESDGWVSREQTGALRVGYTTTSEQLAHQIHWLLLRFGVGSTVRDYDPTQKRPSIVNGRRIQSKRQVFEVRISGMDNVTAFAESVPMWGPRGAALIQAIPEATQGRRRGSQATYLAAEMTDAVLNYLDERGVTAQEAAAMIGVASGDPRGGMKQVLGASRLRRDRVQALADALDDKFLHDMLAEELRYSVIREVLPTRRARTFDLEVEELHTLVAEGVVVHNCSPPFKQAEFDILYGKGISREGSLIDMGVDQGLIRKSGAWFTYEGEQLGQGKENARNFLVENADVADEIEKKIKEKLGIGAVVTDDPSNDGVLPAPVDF

Large T antigen = Large T antigen (Simian virus 40, UniProt P03070); assay type: functional, Betapolyomavirus macacae;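 further: Confirmatory-stage PubChem screen for compounds that inhibit SV40 T antigen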
Sequence of Large T antigen (P03070 whole entry): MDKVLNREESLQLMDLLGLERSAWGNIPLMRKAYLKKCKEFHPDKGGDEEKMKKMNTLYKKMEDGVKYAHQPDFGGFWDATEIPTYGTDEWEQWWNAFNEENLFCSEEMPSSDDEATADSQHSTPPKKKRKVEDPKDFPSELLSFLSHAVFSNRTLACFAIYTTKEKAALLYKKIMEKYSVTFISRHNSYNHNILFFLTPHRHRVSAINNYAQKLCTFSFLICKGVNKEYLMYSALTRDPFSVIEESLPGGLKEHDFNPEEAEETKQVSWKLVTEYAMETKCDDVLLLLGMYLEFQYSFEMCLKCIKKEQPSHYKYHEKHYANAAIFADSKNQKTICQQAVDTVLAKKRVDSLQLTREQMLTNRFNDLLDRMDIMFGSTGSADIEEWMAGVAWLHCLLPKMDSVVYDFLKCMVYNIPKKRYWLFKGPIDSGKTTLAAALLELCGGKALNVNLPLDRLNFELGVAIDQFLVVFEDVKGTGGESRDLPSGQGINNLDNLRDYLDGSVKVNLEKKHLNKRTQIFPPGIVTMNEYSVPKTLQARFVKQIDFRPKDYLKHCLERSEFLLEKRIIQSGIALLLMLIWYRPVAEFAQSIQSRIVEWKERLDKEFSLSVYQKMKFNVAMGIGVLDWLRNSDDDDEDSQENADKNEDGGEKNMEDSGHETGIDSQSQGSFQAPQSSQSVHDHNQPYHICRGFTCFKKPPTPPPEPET

[7] = target: Dual specificity tyrosine-phosphorylation-regulated kinase 1A (Rattus norvegicus, UniProt Q63470); assay type: biochemical, Homo sapiens
[8] = target: T5, Zinc finger protein mex-5 (Caenorhabditis elegans, UniProt Q9XUB2); assay: potency of MEX-5 RNA-binding blockers – biochemical, C. elegans, fluorescence polarization, dose response (AID 1960)
T5 sequence (Q9XUB2 whole entry): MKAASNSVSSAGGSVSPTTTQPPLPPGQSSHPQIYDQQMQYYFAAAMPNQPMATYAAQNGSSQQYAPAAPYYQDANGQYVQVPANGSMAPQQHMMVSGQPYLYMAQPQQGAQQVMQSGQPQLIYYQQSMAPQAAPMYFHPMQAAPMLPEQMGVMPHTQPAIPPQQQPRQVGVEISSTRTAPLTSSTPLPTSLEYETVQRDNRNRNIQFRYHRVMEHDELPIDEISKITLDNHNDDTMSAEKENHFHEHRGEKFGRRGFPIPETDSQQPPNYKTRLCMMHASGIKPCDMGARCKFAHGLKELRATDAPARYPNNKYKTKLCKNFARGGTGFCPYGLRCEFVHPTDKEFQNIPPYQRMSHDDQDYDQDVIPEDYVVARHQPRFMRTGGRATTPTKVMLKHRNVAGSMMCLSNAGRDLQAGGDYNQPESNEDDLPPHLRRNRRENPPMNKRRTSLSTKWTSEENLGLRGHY

[9] = target: Voltage-gated inwardly rectifying potassium channel KCNH2 (Homo sapiens, UniProt Q12809); details: Potency;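 further: confirmatory quantitative high-throughput screen measuring inhibition of hERG channel activity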
Sequence of Voltage-gated inwardly rectifying potassium channel KCNH2 (Q12809 whole entry): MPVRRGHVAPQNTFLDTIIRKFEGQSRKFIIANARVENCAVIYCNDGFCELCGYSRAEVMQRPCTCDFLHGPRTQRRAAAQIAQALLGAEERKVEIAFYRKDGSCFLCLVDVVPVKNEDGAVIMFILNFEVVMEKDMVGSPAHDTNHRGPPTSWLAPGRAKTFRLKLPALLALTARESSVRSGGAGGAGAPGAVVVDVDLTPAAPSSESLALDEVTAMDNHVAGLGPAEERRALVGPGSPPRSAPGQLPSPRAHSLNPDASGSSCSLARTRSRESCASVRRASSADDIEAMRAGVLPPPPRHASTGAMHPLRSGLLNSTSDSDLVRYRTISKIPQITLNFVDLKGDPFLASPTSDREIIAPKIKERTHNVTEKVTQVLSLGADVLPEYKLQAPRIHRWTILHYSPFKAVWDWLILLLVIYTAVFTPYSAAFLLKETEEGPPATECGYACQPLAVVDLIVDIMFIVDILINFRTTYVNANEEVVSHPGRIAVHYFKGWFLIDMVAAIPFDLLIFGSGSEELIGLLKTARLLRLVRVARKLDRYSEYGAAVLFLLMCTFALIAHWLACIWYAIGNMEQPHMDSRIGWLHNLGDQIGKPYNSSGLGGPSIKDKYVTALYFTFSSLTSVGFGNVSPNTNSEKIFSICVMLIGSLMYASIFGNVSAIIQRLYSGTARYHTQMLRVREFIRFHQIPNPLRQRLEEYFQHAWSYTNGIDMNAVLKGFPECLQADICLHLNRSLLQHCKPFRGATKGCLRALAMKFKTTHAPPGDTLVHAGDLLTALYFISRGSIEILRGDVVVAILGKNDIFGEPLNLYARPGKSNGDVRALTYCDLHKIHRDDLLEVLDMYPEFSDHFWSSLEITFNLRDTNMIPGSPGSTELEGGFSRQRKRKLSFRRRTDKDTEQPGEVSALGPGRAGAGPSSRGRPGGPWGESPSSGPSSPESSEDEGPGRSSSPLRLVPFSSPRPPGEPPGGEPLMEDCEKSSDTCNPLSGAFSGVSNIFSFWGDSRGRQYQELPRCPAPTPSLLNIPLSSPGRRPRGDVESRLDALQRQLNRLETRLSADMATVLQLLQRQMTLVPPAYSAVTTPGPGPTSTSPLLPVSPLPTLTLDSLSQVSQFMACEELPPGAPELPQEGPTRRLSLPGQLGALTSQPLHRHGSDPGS

[10] = target: Beta-adrenergic receptor kinase 1 (Homo sapiens, UniProt P25098); assay: aptamer displacement from bead-bound GRK2 – biochemical, cherry pick 1, bead flow cytometry, dose response (AID 504500)
Sequence of Beta-adrenergic receptor kinase 1 (P25098 whole entry): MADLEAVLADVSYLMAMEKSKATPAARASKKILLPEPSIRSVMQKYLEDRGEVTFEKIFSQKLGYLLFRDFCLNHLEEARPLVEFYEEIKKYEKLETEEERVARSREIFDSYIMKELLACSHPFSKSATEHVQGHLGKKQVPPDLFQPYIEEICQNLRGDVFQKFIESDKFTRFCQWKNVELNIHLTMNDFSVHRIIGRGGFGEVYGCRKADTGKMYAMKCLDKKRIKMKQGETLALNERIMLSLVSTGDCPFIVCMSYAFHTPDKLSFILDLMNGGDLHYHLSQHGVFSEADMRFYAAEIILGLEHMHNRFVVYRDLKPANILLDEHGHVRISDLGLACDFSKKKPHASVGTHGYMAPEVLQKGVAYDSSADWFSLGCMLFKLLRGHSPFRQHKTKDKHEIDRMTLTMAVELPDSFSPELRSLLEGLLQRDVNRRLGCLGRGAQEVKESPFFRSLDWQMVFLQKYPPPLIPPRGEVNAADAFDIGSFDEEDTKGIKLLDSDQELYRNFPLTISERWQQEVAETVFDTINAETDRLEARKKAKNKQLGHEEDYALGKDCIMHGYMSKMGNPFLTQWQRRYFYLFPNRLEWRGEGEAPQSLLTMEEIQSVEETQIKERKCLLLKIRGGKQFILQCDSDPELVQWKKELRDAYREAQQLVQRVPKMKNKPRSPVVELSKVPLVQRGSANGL

Protein skinhead-1 = target: T6, Protein skinhead-1 (Caenorhabditis elegans, UniProt P34707); assay type: functional
T6 sequence (P34707 whole entry): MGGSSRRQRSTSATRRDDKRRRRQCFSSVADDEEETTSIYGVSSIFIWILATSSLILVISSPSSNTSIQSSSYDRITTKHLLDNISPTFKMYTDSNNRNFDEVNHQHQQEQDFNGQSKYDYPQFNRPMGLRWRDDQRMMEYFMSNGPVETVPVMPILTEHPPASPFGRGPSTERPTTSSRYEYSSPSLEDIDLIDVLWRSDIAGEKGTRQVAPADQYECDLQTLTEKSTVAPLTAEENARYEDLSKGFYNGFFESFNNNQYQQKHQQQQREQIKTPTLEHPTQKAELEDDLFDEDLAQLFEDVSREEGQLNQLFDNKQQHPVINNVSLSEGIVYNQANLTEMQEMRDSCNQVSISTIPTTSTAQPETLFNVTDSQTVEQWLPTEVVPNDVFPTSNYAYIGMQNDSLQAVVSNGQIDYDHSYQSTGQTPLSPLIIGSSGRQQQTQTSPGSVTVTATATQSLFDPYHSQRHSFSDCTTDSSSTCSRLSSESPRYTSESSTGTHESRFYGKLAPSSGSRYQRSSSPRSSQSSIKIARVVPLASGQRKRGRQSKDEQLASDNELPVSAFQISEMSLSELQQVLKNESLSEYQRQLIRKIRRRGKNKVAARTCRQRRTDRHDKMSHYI

[11] = target: Heat shock protein HSP 90-alpha (Homo sapiens, UniProt P07900); assay: Luminescence-based dose response biochemical high throughput screening assay for inhibitors of the Heat Shock Protein 90 (HSP90). [Related pubchem assays: 1831 (Summary AID.), 1846 (Confirmation screen.), 1789 (Primary screen.)]
[12] = target: T7, Beta-2 adrenergic receptor (Homo sapiens, UniProt P07550); assay: Dose response for HTS for Beta-2AR agonists via FAP method from Powderset3.; assay type: functional
T7 sequence (P07550 whole entry): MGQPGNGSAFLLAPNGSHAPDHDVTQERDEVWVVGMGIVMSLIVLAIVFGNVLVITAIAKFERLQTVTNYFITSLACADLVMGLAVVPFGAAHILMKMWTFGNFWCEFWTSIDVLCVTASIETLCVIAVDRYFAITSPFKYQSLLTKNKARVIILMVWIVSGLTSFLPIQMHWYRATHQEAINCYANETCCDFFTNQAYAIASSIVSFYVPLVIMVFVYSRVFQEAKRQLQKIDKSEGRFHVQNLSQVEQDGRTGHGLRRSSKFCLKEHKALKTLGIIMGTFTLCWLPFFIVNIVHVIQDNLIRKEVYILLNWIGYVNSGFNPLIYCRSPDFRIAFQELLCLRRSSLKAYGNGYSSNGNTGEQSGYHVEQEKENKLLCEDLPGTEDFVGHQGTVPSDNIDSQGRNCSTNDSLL

[13] = target: T7, Beta-2 adrenergic receptor; assay: ADRB2 activation measured by internalization – cell-based, FAP fluorogen, flow cytometry, cherry pick 1, dose response (AID 588763); assay type: functional
Phospholipase A2 = Phospholipase A2 (Homo sapiens, UniProt P04054); assay type: functional;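 further: confirmatory dose-response counterscreen on phospholipase A2, testing hits that came from an ultra-high-throughput screen for ATG4B inhibitors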
Sequence of Phospholipase A2 (P04054 whole entry): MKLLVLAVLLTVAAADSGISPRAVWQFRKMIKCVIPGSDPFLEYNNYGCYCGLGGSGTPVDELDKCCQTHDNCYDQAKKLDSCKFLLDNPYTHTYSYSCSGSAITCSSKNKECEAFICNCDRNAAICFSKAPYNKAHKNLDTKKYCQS

Cysteine protease ATG4B = Cysteine protease ATG4B (Homo sapiens, UniProt Q9Y4P1); assay type: functional;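 further: Fluorescence-based dose-response confirmation assay measuring inhibition of ATG4B activity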
Sequence of Cysteine protease ATG4B (Q9Y4P1 whole entry, the tested form may be a part): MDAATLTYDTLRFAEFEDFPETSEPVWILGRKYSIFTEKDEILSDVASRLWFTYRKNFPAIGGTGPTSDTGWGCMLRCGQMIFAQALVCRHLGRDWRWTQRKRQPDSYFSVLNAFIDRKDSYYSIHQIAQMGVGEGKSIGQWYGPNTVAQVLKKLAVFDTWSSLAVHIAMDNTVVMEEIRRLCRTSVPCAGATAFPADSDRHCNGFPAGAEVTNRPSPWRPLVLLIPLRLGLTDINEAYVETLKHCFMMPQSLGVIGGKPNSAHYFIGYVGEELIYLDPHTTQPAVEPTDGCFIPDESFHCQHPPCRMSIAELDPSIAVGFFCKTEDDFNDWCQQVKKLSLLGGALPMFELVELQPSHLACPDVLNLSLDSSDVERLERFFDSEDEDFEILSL

[14] = target: T8, Carboxy-terminal domain RNA polymerase II polypeptide A small phosphatase 1 (Homo sapiens, UniProt Q9GZU7); assay: CTDSP1 inhibitors, concentration-response, biochemical, absorbance readout, ultra-high-throughput screen actives (AID 540297); assay type: functional
T8 sequence (Q9GZU7 whole entry): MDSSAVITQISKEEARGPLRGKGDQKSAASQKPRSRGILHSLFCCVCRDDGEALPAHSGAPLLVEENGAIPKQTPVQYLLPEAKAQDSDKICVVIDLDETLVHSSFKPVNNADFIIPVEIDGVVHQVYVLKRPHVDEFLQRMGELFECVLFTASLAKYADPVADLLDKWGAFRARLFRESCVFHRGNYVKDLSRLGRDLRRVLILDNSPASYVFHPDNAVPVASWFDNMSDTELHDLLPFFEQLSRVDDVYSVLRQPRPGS

[15] = target: Envelope glycoprotein gp160 (Human immunodeficiency virus 1, UniProt Q6QLK5); assay: cell-free HIV fusion peptide-binding blockers – biochemical, uHTS, fluorescence dequenching, […] (AID 1986)
Sequence of Envelope glycoprotein gp160 (Q6QLK5 whole entry, the tested form may be a part): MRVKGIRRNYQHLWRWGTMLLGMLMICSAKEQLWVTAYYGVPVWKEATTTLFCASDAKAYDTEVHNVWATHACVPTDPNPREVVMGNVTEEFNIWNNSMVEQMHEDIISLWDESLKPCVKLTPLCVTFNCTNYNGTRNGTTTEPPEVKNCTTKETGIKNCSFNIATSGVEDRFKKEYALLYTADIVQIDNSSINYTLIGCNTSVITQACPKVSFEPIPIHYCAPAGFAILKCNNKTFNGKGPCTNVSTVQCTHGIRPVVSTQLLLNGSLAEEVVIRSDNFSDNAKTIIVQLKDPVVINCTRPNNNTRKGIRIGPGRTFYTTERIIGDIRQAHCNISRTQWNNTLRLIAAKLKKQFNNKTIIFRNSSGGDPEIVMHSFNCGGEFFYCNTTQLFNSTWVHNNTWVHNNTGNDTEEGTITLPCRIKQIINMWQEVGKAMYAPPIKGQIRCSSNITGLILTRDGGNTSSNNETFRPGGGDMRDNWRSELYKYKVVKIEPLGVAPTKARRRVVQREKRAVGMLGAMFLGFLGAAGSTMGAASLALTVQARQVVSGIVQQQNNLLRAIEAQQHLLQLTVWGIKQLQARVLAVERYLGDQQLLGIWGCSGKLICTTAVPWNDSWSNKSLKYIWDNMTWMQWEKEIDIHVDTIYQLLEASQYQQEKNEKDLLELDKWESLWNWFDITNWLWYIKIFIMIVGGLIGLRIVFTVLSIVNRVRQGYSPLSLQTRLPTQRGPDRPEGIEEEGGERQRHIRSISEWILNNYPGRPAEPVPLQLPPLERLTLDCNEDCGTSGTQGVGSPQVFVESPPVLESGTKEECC

[16] = CCR5-tropic HIV-1 fusion blockers – cell-based, CCR5-tropic Env, dose response (AID 2279); assay type: functional
[17] = target: Glycogen synthase kinase-3 alpha (Homo sapiens, UniProt P49840); assay: Inhibition of Human GSK-3 alpha Activity Measured in Biochemical System Using Microfluidics - 2063-06_Inhibitor_Dose_DryPowder_Activity. [Related pubchem assays (depositor defined):AID2709]
[18] = target: Glycogen synthase kinase-3 beta (Homo sapiens, UniProt P49841); assay: Inhibition of Human GSK-3 beta Activity Measured in Biochemical System Using Microfluidics - 2063-05_Inhibitor_Dose_DryPowder_Activity. [Related pubchem assays (depositor defined):AID2709]
Sequence of Glycogen synthase kinase-3 beta (P49841 whole entry): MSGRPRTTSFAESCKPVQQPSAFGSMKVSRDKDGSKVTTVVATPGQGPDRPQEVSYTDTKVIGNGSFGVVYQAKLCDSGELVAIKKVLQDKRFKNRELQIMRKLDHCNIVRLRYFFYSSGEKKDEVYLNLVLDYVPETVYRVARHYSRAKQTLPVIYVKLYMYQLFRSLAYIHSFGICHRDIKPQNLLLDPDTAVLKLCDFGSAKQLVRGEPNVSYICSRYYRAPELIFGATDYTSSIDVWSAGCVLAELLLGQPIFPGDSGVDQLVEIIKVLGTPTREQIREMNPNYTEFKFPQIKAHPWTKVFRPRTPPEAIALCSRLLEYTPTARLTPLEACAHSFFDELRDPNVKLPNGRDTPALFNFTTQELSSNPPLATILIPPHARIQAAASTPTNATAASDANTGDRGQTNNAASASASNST

## CN1c2ccc(C=O)c3c(C=O)ccc(c23)N(C)C1(C)C
[1]
  AC50: 45.7 µM (active)
[2]
  EC50: > 120 µM (not active)
Hexokinase HKDC1
  IC50: 13.1 µM (active)
[3]
  EC50: 74 µM (inconclusive)
[4]
  AC50: 1.54 µM (active)
[5]
  EC50: 15.9 µM (active)
[6]
  EC50: 17.8 µM (active)
CAAX prenyl protease 2
  AC50: 10.5 µM (active)
Protein RecA
  EC50: 59.9 µM (inconclusive)
Large T antigen
  IC50: 23 µM (active)
[7]
  AC50: 0.199 µM (active)
[8]
  EC50: 5.37 µM (inconclusive)

## CC(=O)O[C@]1(C(C)=O)CC[C@H]2[C@@H]3C=C(Cl)C4=CC(=O)[C@@H]5C[C@H]5[C@]4(C)[C@H]3CC[C@@]21C
[9]
  AC50: 35.5 µM (inconclusive)

## Cc1cc2ccccc2n1CCNC(=O)c1cccs1
[10]
  EC50: 3.5 µM (active)
Protein skinhead-1
  IC50: > 100 µM (inactive)
[11]
  IC50: 4.57 µM (active)

## Cc1ccc(NC(=O)C(c2ccc(Cl)cc2)N2CCOCC2)cc1 (stereo not given)
[12]
  EC50: 1.51 µM (active)
[13]
  EC50: 2.18 µM (active)

## CCOc1cc(/C=C2\SC(=O)N(CC(=O)Nc3ccccc3F)C2=O)cc([N+](=O)[O-])c1O
Phospholipase A2
  IC50: 7.23 µM (active)
Cysteine protease ATG4B
  IC50: 9.16 µM (active)
[14]
  IC50: 9.89 µM (active)
[15]
  IC50: 26.9 µM (active)
[16]
  IC50: 43.6 µM (active)

## COC(=O)c1ccc(CSc2nnc(-c3ccncc3)o2)cc1
[17]
  AC50: 1.67 µM (active)
[18]
  AC50: 0.395 µM (active)
